Drawing on PMC6100415, “Hepatic Metabolism of Sakuranetin and Its Modulating Effects on Cytochrome P450s and UDP-Glucuronosyltransferases” (Molecules : A Journal of Synthetic Chemistry and Natural …, 2018), this text covers inhibition for three compounds.

One data set deals with T1, UGT1A4 (Homo sapiens, UniProt P22310).
T1 construct: The typical incubation mixture contained human liver microsomes (0.5 mg/mL) along with SKN (10 μM); tissue BD Gentest; host or cells: human liver microsomes
T1 sequence (P22310 29-534): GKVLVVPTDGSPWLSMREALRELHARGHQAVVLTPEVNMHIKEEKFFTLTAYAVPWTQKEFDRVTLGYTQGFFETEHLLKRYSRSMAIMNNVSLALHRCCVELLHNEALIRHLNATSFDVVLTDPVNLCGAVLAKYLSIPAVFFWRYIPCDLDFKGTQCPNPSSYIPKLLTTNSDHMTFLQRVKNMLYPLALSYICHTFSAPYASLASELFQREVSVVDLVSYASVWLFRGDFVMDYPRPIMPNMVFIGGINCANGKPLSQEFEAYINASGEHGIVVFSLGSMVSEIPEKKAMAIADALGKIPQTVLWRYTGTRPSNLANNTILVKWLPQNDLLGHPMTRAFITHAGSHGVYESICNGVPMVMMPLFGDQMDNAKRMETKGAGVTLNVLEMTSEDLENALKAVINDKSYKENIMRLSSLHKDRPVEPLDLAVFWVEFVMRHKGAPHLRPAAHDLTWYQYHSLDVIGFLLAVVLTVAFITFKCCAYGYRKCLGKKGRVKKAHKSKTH
Kind of data set: UGT inhibition in human liver microsomes, trifluoperazine N-glucuronidation (TFPG). In kind it is in vitro ADME. The conditions noted are these: pH 7.4, probe trifluoperazine (200 μM). Here is the method: (§1) The formation of a glucuronide conjugate from an isozyme-specific substrate (200 μM, Table 5) was examined to determine UGT activity levels in human liver microsomes. The typical incubation mixture contained human liver microsomes (0.5 mg/mL) along with SKN (10 μM), and MgCl2 (10 mM) in 50 mM Tris-HCl buffer (pH 7.4). The metabolic reaction was initiated by adding UPDGA (2 mM) and stopped by adding an equal volume of ice-cold methanol. […] The conditions used for the operation and analysis of the HPLC-DAD and LC-ESI-MS are provided in the Supplementary Materials and Table S3.
(§2) The solvent flow rate was set at 0.2 mL/min, and the column temperature was set at 35 °C. The LTQ instrument was operated in negative ion electron spray mode at an ion spray voltage of −4.2 kV and a source temperature of 275 °C. The sheath gas flow rate was 35 arb, and the aux gas flow rate was 5 arb. The MS conditions used to detect glucuronides via selected ion monitoring scan mode are summarized in Supplementary Materials Table S3.
For orientation: Microsomes from liver hold many membrane-bound enzymes, among them those of drug oxidation.

Another data set concerns the target T2, UGT2B7 (Homo sapiens, UniProt P16662).
T2 construct: The typical incubation mixture contained human liver microsomes (0.5 mg/mL) along with SKN (10 μM); tissue BD Gentest; host or cells: human liver microsomes
T2 sequence (P16662 24-529): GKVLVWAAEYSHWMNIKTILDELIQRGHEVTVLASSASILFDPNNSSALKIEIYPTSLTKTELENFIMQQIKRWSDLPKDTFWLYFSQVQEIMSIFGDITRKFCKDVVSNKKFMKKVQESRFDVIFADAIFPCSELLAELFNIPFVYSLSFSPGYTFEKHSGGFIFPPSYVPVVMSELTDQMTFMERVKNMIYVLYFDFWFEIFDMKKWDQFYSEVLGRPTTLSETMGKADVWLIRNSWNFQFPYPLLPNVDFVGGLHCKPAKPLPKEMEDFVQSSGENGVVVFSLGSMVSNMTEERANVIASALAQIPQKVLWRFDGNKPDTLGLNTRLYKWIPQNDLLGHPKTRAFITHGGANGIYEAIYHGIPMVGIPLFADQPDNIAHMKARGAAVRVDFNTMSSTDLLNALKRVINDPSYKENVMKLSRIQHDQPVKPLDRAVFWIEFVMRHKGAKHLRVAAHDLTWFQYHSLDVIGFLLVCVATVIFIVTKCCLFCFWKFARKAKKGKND
Kind of data set: UGT inhibition in human liver microsomes, zidovudine 5′-glucuronidation (AZTG). In kind it is in vitro ADME. The note with it: pH 7.4, probe zidovudine (200 μM). The procedure:
as §1, §2

In a further data set the target is CYP2D6 (Homo sapiens, UniProt P10635). Kind of data set: CYP inhibition in human liver microsomes, dextromethorphan O-demethylation (DEXOD). In kind it is in vitro ADME. The conditions noted are these: pH 7.4, probe dextromethorphan (O-demethylation, DEXOD). An excerpt: (§3) The DAD was set at 280 nm.
CYP2D6, sequence (P10635 whole entry): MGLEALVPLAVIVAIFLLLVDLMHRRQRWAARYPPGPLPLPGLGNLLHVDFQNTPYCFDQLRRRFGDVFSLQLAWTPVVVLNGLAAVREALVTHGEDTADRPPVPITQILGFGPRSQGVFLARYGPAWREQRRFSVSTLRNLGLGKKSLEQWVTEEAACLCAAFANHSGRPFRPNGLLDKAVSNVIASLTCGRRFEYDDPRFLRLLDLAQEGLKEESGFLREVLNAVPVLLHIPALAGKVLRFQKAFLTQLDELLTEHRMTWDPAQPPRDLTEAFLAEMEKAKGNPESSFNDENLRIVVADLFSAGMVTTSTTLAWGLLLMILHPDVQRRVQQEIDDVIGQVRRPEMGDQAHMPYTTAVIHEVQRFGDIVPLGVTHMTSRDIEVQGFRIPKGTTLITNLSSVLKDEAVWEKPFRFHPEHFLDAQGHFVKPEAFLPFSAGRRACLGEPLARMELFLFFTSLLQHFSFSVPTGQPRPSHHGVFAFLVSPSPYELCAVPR
The next data set concerns the target CYP2C9 (Homo sapiens, UniProt P11712). Kind of data set: in vitro. The conditions noted are these: human liver microsomes, pH 7.4, probe tolbutamide (6-hydroxylation, TOLHY), 200 µM.
The target in a further data set is CYP3A4 (Homo sapiens, UniProt P08684). Kind of data set: CYP inhibition in human liver microsomes, testosterone 6β-hydroxylation (TSTHY). In kind it is in vitro ADME. The conditions noted are these: pH 7.4, probe testosterone (6β-hydroxylation, TSTHY).
CYP3A4, sequence (P08684 whole entry): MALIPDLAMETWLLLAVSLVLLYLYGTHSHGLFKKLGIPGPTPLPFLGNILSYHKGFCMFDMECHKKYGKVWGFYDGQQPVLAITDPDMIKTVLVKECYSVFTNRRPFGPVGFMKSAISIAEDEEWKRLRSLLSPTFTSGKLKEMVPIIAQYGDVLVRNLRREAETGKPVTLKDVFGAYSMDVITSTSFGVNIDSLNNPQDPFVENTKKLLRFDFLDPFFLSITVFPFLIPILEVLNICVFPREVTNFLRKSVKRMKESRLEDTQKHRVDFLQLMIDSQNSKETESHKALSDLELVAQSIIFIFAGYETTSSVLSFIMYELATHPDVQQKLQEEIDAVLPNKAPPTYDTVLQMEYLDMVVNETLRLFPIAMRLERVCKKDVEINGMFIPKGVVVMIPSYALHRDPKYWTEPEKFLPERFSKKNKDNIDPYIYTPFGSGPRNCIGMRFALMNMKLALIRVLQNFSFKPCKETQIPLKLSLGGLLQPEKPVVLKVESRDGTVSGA
Source text: as §3

The next data set concerns the target T3, UGT1A1 (Homo sapiens, UniProt P22309).
T3 construct: The typical incubation mixture contained human liver microsomes (0.5 mg/mL) along with SKN (10 μM); tissue BD Gentest; host or cells: human liver microsomes
T3 sequence (P22309 26-533): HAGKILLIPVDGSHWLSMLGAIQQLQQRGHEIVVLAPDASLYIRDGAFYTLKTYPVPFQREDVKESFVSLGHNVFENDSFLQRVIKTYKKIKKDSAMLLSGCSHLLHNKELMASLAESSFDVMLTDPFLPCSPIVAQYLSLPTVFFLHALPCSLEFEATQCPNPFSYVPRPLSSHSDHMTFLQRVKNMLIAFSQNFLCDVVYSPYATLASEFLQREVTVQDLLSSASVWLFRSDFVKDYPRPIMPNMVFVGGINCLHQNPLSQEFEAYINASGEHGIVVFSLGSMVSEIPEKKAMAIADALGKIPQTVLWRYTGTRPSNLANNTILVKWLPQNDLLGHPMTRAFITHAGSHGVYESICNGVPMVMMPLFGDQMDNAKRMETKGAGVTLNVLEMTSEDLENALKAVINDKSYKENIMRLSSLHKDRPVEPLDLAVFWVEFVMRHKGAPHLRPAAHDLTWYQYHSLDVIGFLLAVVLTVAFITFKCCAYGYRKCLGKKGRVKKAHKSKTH
Kind of data set: UGT inhibition in human liver microsomes, 17β-estradiol 3-O-glucuronidation (ESG). In kind it is in vitro ADME. The note with it: pH 7.4, probe 17β-estradiol (200 μM). The procedure: as §1, §2

Where [1] appears, read: inhibitor 10 µM, human liver microsomes 0.5 mg/mL, read-out: Inhibition (%).
Where [2] appears, read: human liver microsomes, 200 µM, inhibitor 10 M [sic], human liver microsomes 0.5 mg/mL, read-out: Inhibition (%).
The mark [3] stands for this setting: SKN 10 μM, 15 min pre-incubation, read-out: % Inhibition in Pre-Incubation.
Setting [4] is: SKN 10 μM, read-out: % Inhibition in Co-Incubation.
Where [5] appears, read: liver microsomes, 200 μM, SKN 10 μM, 15 min pre-incubation, read-out: % Inhibition in Pre-Incubation.
The mark [6] stands for this setting: liver microsomes, 200 μM, SKN 10 μM, human liver microsomes, read-out: % Inhibition in Co-Incubation.

What is called inhibition is the change of the read-out against control, counted positive when it falls.

Read-outs that look alike come from different tables or passages of the source.

CYP2C9, sequence (P11712 whole entry): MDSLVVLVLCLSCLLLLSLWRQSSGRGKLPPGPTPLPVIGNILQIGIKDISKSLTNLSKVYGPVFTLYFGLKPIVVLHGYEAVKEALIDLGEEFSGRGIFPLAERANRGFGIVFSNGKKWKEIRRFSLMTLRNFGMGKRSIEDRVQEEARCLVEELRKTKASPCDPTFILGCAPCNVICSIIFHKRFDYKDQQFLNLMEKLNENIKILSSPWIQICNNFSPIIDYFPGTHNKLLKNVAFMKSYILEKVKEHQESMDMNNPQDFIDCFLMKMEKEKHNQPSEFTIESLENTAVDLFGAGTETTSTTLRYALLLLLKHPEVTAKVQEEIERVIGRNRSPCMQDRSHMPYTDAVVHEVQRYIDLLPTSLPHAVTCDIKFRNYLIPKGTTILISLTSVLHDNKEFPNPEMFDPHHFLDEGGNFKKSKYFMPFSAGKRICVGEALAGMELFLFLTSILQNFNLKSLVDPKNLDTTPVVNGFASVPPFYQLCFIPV
Protocol for CYP2C9: The formation of a metabolite from a CYP isozyme-specific phenotyping reaction (Table 4) was monitored. Each substrate (200 μM), along with SKN (10 μM), was incubated with human liver microsomes (0.5 mg/mL) and an NADPH-generating system in 0.1 M potassium phosphate buffer (pH 7.4) at 37 °C for 60 min in a total volume of 200 μL in a shaking water bath. The metabolic reaction was initiated by adding NADP^+ (1 mM) and stopped by adding 10 μL of trichloroacetic acid. In some experiments, the microsomes were pre-incubated with SKN for 15 min prior to the addition of the cofactor, in order to determine the time-dependent inhibitory effect. […] In contrast, co-incubation refers to experiments in which microsomes and cofactors were incubated in the presence of SKN. After centrifugation of incubation samples at 12,000× g for 15 min at 4 °C, the supernatant (20 μL) was injected into an HPLC-DAD system to analyze the metabolites formation (Supplementary Materials).
The DAD was set at 248 nm for phenacetin O-deethylation (PCOD), 298 nm for bupropion hydroxylation (BPHY), 276 nm for diclofenac 4′-hydroxylation (DCHY), 230 nm for tolbutamide 6-hydroxylation (TOLHY), 280 nm for dextromethorphan O-demethylation (DEXOD), and 250 nm for testosterone 6β-hydroxylation (TSTHY) and testosterone β-D-glucuronidation (TSTG).

Consider `O=C1C[C@@H](c2ccc(O)c(O)c2)Oc2cc(O)cc(O)c21` [Eriodictyol, 3′-hydroxynaringenin], for which the inhibition at 10 μM on UGT1A4 (setting [1]) came out at 13.7 ± 3.8%; on UGT2B7 (setting [1]), 8.2 ± 1.4%; at UGT1A1 (setting [1]), 20.8 ± 3.4%. For the same compound, the inhibition at 60 min, 10 µM was found to be 5.6 ± 3.6% on CYP2D6 (setting [2]), 7.7 ± 0.4% on CYP2C9 and 3.2 ± 0.7% on CYP3A4 (setting [2]).
Consider `COc1cc(O)c2c(c1)OC(c1ccc(O)cc1)CC2=O` (racemic) [SKN, (+/−) 7-O-methylnaringenin], for which the inhibition at 10 μM on UGT1A4 (setting [3]) was 8.7 ± 1.4%; at UGT1A4 (setting [4]), 15.3 ± 3.8%; at UGT2B7 (setting [3]), 12.6 ± 2.8%; at UGT2B7 (setting [4]) it was 15.6 ± 0.6%; on UGT1A1 (setting [3]), 1.5 ± 2.1%; at UGT1A1 (setting [4]), 0.4 ± 0.5%. The inhibition at 60 min, 10 µM is 3.5 ± 2.6% at CYP2D6 (setting [5]), -0.6 ± 3.1% at CYP2D6 (setting [6]), 12.6 ± 2.8% on CYP3A4 (setting [5]) and 15.6 ± 0.6% on CYP3A4 (setting [6]).
For `O=C1C[C@@H](c2ccc(O)cc2)Oc2cc(O)cc(O)c21` [Naringenin], the values for the inhibition at 10 μM at UGT1A4 (setting [1]), at UGT2B7 (setting [1]) and on UGT1A1 (setting [1]) were 9.6 ± 3.1%, 6 ± 2.2% and 10.8 ± 3%, respectively. For the same compound, the inhibition at 60 min, 10 µM on CYP2D6 (setting [2]) came out at 11.9 ± 1.4%; at CYP2C9, 12 ± 0.7%; on CYP3A4 (setting [2]), 39.6 ± 2.2%.
